From US20170290882A1, “Specific Combined Therapy of Malignant Tumors with a Cytostatic and Its Modifier” (priority 2015, published 2017)

Key:
[1] = at assumed therapeutic dose and at its five-fold excess; cited from earlier work
B16 melanoma = experiment: Binary therapy DDP+GMDP-A in the B16 melanoma model; assay type: in vivo, BDF1 mice; conditions: for Tumor volume / tumor growth inhibition (TGI) / Average life time / ILT (increase of the animal life time) / Metastasis MF (tumor metastasis frequency) / Metastasis MI (metastasis inhibition rate): DDP, if given, single 4 mg/kg i.v.
Method: (§1) They were transplanted on the right-side surface of the animal body.
(§2) The animals with tumors were treated in test groups at the early (24 hours after tumor inoculation) and late (5 days after tumor inoculation) terms of the tumor growth using a single cytostatic injection intravenously in a dose equal to ½ or ¼ of therapeutic one and various schedules for GMDP-A injection: • Primary subcutaneous injection of GMDP-A modifier in a single dose 3.75 mg/kg; • Repeated protracted subcutaneous administration of GMDP-A modifier according to different schedules: 4-fold, 9-fold and 20-fold, once per day, in a single dose of 3.75 mg/kg (course dose is 18.75 mg/kg, 37.5 mg/kg and 78.75 mg/kg, correspondingly). Dosage frequency depends upon the model (histological form of transplanted tumor).
(§3) To identify efficiency of the claimed combined therapy, independent medication was carried out as a control after tumor inoculation using one component of binary therapy-cytostatic drug or a modifier. Cytostatic was injected intravenously in amount of ½ or ¼ of therapeutic dose once after 24 hours or 5 days after tumor inoculation; GMDP-A modifier was administered subcutaneously in a single dose of 3.75 mg/kg 5-fold from the 1st day to the 5th day or from the 5th day to the 9th day, or 10-fold from the 1st day to the 10th day or from the 5th day to the 14th day, or 21-fold from the 1st day to the 21st day after tumor inoculation.
(§4) Anti-tumor efficiency of the claimed combined therapy and comparative monotherapy using only a cytostatic or only GMDP-A modifier was assessed by the criteria commonly used in experimental oncology: tumor volume (TV), tumor growth inhibition (TGI), increase of the animal life time (ILT), tumor metastasis frequency (MF), metastasis inhibition rate (MI).
Efficiency of the combined therapy—chemotherapy with DDP cytostatic and biotherapy with GMDP-A was assessed on B16 melanoma model inoculated to BDF1 mice, females, subcutaneously on the right-side body surface.
1 mg/ml GMDP-A solution for subcutaneous injection was prepared by dissolving GMDP-A lyophilisate in water for injections.
GMDP-A was administered to mice subcutaneously as a single dose of 3.75 mg/kg every day with different schedules:
Five-fold (total dose is 18.75 mg/kg) on the 1st day to the 5th day or on the 5th day to the 9th day after tumor inoculation;
Ten-fold (total dose is 37.5 mg/kg) on the 1st day to the 10th day or on the 5th day to the 14th day after tumor inoculation;
DDP (Cisplatin, Cisplatin Teva trade mark, manufacturer is Teva Pharmaceutical Industries Ltd., Israel, fabricated at Pharmachemie B.V., the Netherlands) was administered intravenously as a single dose of 4 mg/kg (½ of therapeutic dose).

[2] = tested on: P388 lymphoplastic leukemia; experiment: Combined therapy DDP+GMDP-A in the P388 lymphoplastic leukemia model; assay type: in vivo, mice BDF1; conditions: for Tumor volume / tumor growth inhibition (TGI) / Average life time / ILT (increase of the animal life time) / Metastasis MF (tumor metastasis frequency) / Metastasis MI (metastasis inhibition rate): DDP, if given, single 4 mg/kg i.v.
Method: as §1, §2, §3, §4
Efficiency of the combined therapy—chemotherapy with cisplatin cytostatic (DDP) and bioherapy with GMDP-A was assessed on P388 lymphoplastic leukemia model inoculated to mice BDF1, females, subcutaneously on the right-side body surface.
GMDP-A was administered to mice subcutaneously as a single dose of 3.75 mg/kg every day with different schedules: • Five-fold (total dose is 18.75 mg/kg) on the 1st day to the 5th day or on the 5th day to the 9th day after tumor inoculation; • Ten-fold (total dose is 37.5 mg/kg) on the 1st day to the 10th day or on the 5th day to the 14th day after tumor inoculation; • Twenty-one-fold (total dose is 78.75 mg/kg) on the 1st day to the 21st st day after tumor inoculation.
DDP (Cisplatin, Cisplatin Teva trade mark, manufacturer is Teva Pharmaceutical Industries Ltd., Israel, fabricated at Pharmachemie B.V., the Netherlands) was administered intravenously as a single dose ma 4 mg/kg (½ of therapeutic dose).

[3] = day 7, early start (1st day), 5-fold GMDP-A 3.75 mg/kg s.c.
[4] = day 7, early start (1st day), 10-fold GMDP-A 3.75 mg/kg s.c.
[5] = day 9, early start (1st day), 5-fold GMDP-A 3.75 mg/kg s.c.
[6] = day 9, early start (1st day), 10-fold GMDP-A 3.75 mg/kg s.c.
[7] = day 9, late start (5th day), 5-fold GMDP-A 3.75 mg/kg s.c.
[8] = day 9, late start (5th day), 10-fold GMDP-A 3.75 mg/kg s.c.
[9] = day 12, early start (1st day), 5-fold GMDP-A 3.75 mg/kg s.c.
[10] = day 12, early start (1st day), 10-fold GMDP-A 3.75 mg/kg s.c.
[11] = day 12, late start (5th day), 5-fold GMDP-A 3.75 mg/kg s.c.
[12] = day 12, late start (5th day), 10-fold GMDP-A 3.75 mg/kg s.c.
[13] = day 14, early start (1st day), 5-fold GMDP-A 3.75 mg/kg s.c.
[14] = day 14, early start (1st day), 10-fold GMDP-A 3.75 mg/kg s.c.
[15] = day 14, late start (5th day), 5-fold GMDP-A 3.75 mg/kg s.c.
[16] = day 14, late start (5th day), 10-fold GMDP-A 3.75 mg/kg s.c.
[17] = day 16, early start (1st day), 5-fold GMDP-A 3.75 mg/kg s.c.
[18] = day 16, early start (1st day), 10-fold GMDP-A 3.75 mg/kg s.c.
[19] = day 16, late start (5th day), 5-fold GMDP-A 3.75 mg/kg s.c.
[20] = day 16, late start (5th day), 10-fold GMDP-A 3.75 mg/kg s.c.
[21] = day 19, early start (1st day), 5-fold GMDP-A 3.75 mg/kg s.c.
[22] = day 19, early start (1st day), 10-fold GMDP-A 3.75 mg/kg s.c.
[23] = day 19, late start (5th day), 5-fold GMDP-A 3.75 mg/kg s.c.
[24] = day 19, late start (5th day), 10-fold GMDP-A 3.75 mg/kg s.c.
[25] = early start (1st day), 5-fold GMDP-A 3.75 mg/kg s.c.
[26] = early start (1st day), 10-fold GMDP-A 3.75 mg/kg s.c.
[27] = late start (5th day), 5-fold GMDP-A 3.75 mg/kg s.c.
[28] = late start (5th day), 10-fold GMDP-A 3.75 mg/kg s.c.
[29] = day 7, early start (1st day), 21-fold GMDP-A 3.75 mg/kg s.c.
[30] = day 7, late start (5th day), 5-fold GMDP-A 3.75 mg/kg s.c.
[31] = day 7, late start (5th day), 10-fold GMDP-A 3.75 mg/kg s.c.
[32] = day 9, early start (1st day), 21-fold GMDP-A 3.75 mg/kg s.c.
[33] = day 12, early start (1st day), 21-fold GMDP-A 3.75 mg/kg s.c.
[34] = day 14, early start (1st day), 21-fold GMDP-A 3.75 mg/kg s.c.
[35] = day 19, early start (1st day), 21-fold GMDP-A 3.75 mg/kg s.c.
[36] = early start (1st day), 21-fold GMDP-A 3.75 mg/kg s.c.

## CC(=O)NC1C(OC2C(CO)OC(O)C(NC(C)=O)C2OC(C)C(=O)NC(C)C(=O)NC(CCC(=O)O)C(=O)O)OC(CO)C(O)C1O [GMDP-A, N-acetyl-D-glucosaminyl-β-(1-4)-N-acetylmuramyl-L-alanyl-D-glutamic acid]
[1]
  Toxic action (acute, chronic and specific toxicity): no toxic action
B16 melanoma; [3]
  Tumor volume: 11 ± 6 mm^3
  tumor growth inhibition (TGI): 71%
B16 melanoma; [4]
  Tumor volume: 15 ± 6 mm^3
  tumor growth inhibition (TGI): 62%
B16 melanoma; [5]
  Tumor volume: 58 ± 11 mm^3
  tumor growth inhibition (TGI): 51%
B16 melanoma; [6]
  Tumor volume: 56 ± 9 mm^3
  tumor growth inhibition (TGI): 52%
B16 melanoma; [7]
  Tumor volume: 61 ± 9 mm^3
  tumor growth inhibition (TGI): 48%
B16 melanoma; [8]
  Tumor volume: 66 ± 14 mm^3
  tumor growth inhibition (TGI): 44%
B16 melanoma; [9]
  Tumor volume: 177 ± 33 mm^3
  tumor growth inhibition (TGI): 33%
B16 melanoma; [10]
  Tumor volume: 162 ± 21 mm^3
  tumor growth inhibition (TGI): 38%
B16 melanoma; [11]
  Tumor volume: 173 ± 17 mm^3
  tumor growth inhibition (TGI): 34%
B16 melanoma; [12]
  Tumor volume: 164 ± 29 mm^3
  tumor growth inhibition (TGI): 37%
B16 melanoma; [13]
  Tumor volume: 347 ± 47 mm^3
  tumor growth inhibition (TGI): 8%
B16 melanoma; [14]
  Tumor volume: 298 ± 44 mm^3
  tumor growth inhibition (TGI): 21%
B16 melanoma; [15]
  Tumor volume: 329 ± 41 mm^3
  tumor growth inhibition (TGI): 13%
B16 melanoma; [16]
  Tumor volume: 269 ± 62 mm^3
  tumor growth inhibition (TGI): 29%
B16 melanoma; [17]
  Tumor volume: 522 ± 82 mm^3
  tumor growth inhibition (TGI): 6%
B16 melanoma; [18]
  Tumor volume: 446 ± 53 mm^3
  tumor growth inhibition (TGI): 20%
B16 melanoma; [19]
  Tumor volume: 391 ± 67 mm^3
  tumor growth inhibition (TGI): 30%
B16 melanoma; [20]
  Tumor volume: 408 ± 79 mm^3
  tumor growth inhibition (TGI): 27%
B16 melanoma; [21]
  Tumor volume: 690 ± 208 mm^3
  tumor growth inhibition (TGI): 10%
B16 melanoma; [22]
  Tumor volume: 894 ± 99 mm^3
  tumor growth inhibition (TGI): 16%
B16 melanoma; [23]
  Tumor volume: 817 ± 234 mm^3
  tumor growth inhibition (TGI): 23%
B16 melanoma; [24]
  Tumor volume: 882 ± 238 mm^3
  tumor growth inhibition (TGI): 17%
B16 melanoma; [25]
  Average life time: 21 ± 4 days
  ILT (increase of the animal life time): 0%
  Metastasis MF (tumor metastasis frequency): 80%
  Metastasis MI (metastasis inhibition rate): 29%
B16 melanoma; [26]
  Average life time: 27 ± 4 days
  ILT (increase of the animal life time): 29%
  Metastasis MF (tumor metastasis frequency): 40%
  Metastasis MI (metastasis inhibition rate): 81%
B16 melanoma; example 2
  efficiency for individual use (without chemotherapy): did not reach a biologically significant level
B16 melanoma; [27]
  Average life time: 18 ± 3 days
  ILT (increase of the animal life time): 0%
  Metastasis MF (tumor metastasis frequency): 100%
  Metastasis MI (metastasis inhibition rate): 5%
B16 melanoma; [28]
  Average life time: 24 ± 4 days
  ILT (increase of the animal life time): 14%
  Metastasis MF (tumor metastasis frequency): 100%
  Metastasis MI (metastasis inhibition rate): 8%
[2]; [3]
  Tumor volume: 45 ± 2 mm^3
  tumor growth inhibition (TGI): 51%
[2]; [4]
  Tumor volume: 66.6 ± 6 mm^3
  tumor growth inhibition (TGI): 37%
[2]; [29]
  Tumor volume: 73.5 ± 4.8 mm^3
  tumor growth inhibition (TGI): 30%
[2]; [30]
  Tumor volume: 63 ± 12 mm^3
  tumor growth inhibition (TGI): 31%
[2]; [31]
  Tumor volume: 86.5 ± 5.9 mm^3
  tumor growth inhibition (TGI): 18%
[2]; [5]
  Tumor volume: 124 ± 7 mm^3
  tumor growth inhibition (TGI): 36%
[2]; [6]
  Tumor volume: 108.6 ± 14.2 mm^3
  tumor growth inhibition (TGI): 24%
[2]; [32]
  Tumor volume: 120.6 ± 12.5 mm^3
  tumor growth inhibition (TGI): 16%
[2]; [7]
  Tumor volume: 107 ± 18 mm^3
  tumor growth inhibition (TGI): 45%
[2]; [8]
  Tumor volume: 105 ± 9 mm^3
  tumor growth inhibition (TGI): 26%
[2]; [9]
  Tumor volume: 204 ± 54 mm^3
  tumor growth inhibition (TGI): 6%
[2]; [10]
  Tumor volume: 187.3 ± 27.4 mm^3
  tumor growth inhibition (TGI): 4%
[2]; [33]
  Tumor volume: 159.0 ± 14.7 mm^3
  tumor growth inhibition (TGI): 18%
[2]; [11]
  Tumor volume: 172 ± 51 mm^3
  tumor growth inhibition (TGI): 21%
[2]; [12]
  Tumor volume: 163.8 ± 13.5 mm^3
  tumor growth inhibition (TGI): 16%
[2]; [13]
  Tumor volume: 257 ± 24 mm^3
  tumor growth inhibition (TGI): 16%
[2]; [14]
  Tumor volume: 245.3 ± 30.5 mm^3
  tumor growth inhibition (TGI): 9%
[2]; [34]
  Tumor volume: 200.7 ± 17.3 mm^3
  tumor growth inhibition (TGI): 25%
[2]; [15]
  Tumor volume: 257 ± 53 mm^3
  tumor growth inhibition (TGI): 16%
[2]; [16]
  Tumor volume: 242.4 ± 18.3 mm^3
  tumor growth inhibition (TGI): 10%
[2]; [21]
  Tumor volume: 318 ± 42 mm^3
  tumor growth inhibition (TGI): 6%
[2]; [22]
  Tumor volume: 566.9 ± 50.2 mm^3
  tumor growth inhibition (TGI): 11%
[2]; [35]
  Tumor volume: 432.1 ± 67.9 mm^3
  tumor growth inhibition (TGI): 32%
[2]; [23]
  Tumor volume: 302 ± 103 mm^3
  tumor growth inhibition (TGI): 11%
[2]; [24]
  Tumor volume: 510.1 ± 46.6 mm^3
  tumor growth inhibition (TGI): 20%
[2]; [25]
  Average life time: 22 ± 1.2 days
  ILT (increase of the animal life time): 21%
[2]; [26]
  Average life time: 24 ± 0.5 days
  ILT (increase of the animal life time): 0%
  Metastasis MF (tumor metastasis frequency): 100%
  Metastasis MI (metastasis inhibition rate): 10%
[2]; [36]
  Average life time: 23 ± 1.6 days
  ILT (increase of the animal life time): −4%
  Metastasis MF (tumor metastasis frequency): 100%
  Metastasis MI (metastasis inhibition rate): 22%
[2]; example 1
  efficiency for individual use (without chemotherapy): did not reach a biologically significant level
[2]; [27]
  Average life time: 20 ± 0.9 days
  ILT (increase of the animal life time): 7%
[2]; [28]
  Average life time: 24 ± 0.8 days
  ILT (increase of the animal life time): 0%
  Metastasis MF (tumor metastasis frequency): 100%
  Metastasis MI (metastasis inhibition rate): 8%
